Here are results for 6 molecules from article PMC10450187, “Ncs2* mediates in vivo virulence of pathogenic yeast through sulphur modification of cytoplasmic transfer RNA” (Nucleic Acids Research, 2023).

One experiment concerns the target T1, CtNcs2 (Thermochaetoides thermophila, UniProt G0SFJ9).
T1 construct: gene NCS2; codon-optimized, E. coli BL21(DE3) pRARE, pETM30 N-terminal 6xHis-GST tag (TEV-cleavable, optionally cleaved), GSTrap, heparin, size exclusion
T1 sequence (G0SFJ9 1-406): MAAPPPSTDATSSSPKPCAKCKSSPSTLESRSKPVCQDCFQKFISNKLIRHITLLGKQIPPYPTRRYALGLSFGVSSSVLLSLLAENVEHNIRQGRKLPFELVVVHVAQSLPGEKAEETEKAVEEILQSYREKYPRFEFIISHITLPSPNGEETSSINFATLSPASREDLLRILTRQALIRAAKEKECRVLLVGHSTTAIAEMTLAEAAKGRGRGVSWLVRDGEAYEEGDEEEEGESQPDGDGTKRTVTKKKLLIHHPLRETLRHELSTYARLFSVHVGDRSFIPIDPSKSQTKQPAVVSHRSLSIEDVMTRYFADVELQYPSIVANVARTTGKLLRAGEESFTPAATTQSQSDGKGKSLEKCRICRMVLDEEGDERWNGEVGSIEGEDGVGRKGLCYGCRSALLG
The experiment is described as follows: thermal shift assay (SYPRO Orange). The experiment is classed as binding. The following applies: 2 mM MgCl2, 20 mM Tris pH 8, 150 mM NaCl, 1 mM DTT.

The target in experiment [1] is Ncs6 (Needs-Cla4-to-Survive 6), S. cerevisiae (S. cerevisiae, UniProt P53088 1-359). The experiment is described as follows: two-hybrid. The following applies: partners not purified.
Chain of Ncs6 (Needs-Cla4-to-Survive 6), S. cerevisiae (P53088 whole entry): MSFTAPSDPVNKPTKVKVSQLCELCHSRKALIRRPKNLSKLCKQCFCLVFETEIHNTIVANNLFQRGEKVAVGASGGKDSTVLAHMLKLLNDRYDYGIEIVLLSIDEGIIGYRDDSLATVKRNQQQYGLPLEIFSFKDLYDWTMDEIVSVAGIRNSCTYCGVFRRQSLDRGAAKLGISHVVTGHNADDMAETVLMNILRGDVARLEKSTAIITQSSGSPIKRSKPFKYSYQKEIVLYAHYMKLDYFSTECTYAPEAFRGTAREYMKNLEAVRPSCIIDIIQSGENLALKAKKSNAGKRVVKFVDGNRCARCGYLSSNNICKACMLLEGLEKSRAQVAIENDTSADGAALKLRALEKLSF

As to `Nc1ncnc2c1ncn2[C@@H]1O[C@H](COP(=O)(O)OP(=O)(O)NP(=O)(O)O)[C@@H](O)[C@H]1O` [AMP-PNP], the melting temperature result at CtNcs2 (1 mM AMP-PNP) is on record as “stability of Ncs2 increases significantly, when it is bound to ATP, ADP or the non-hydrolysable AMP-PNP”.

`Nc1ncnc2c1ncn2[C@@H]1O[C@H](COP(=O)(O)OP(=O)(O)OP(=O)(O)O)[C@@H](O)[C@H]1O` [ATP]: on CtNcs2 (1 mM ATP), the melting temperature result is listed as “stability of Ncs2 increases significantly, when it is bound to ATP, ADP or the non-hydrolysable AMP-PNP”.

In the case of `Nc1ncnc2c1ncn2[C@@H]1O[C@H](COP(=O)(O)OP(=O)(O)O)[C@@H](O)[C@H]1O` [ADP], at CtNcs2 (1 mM ADP), the melting temperature entry was “stability of Ncs2 increases significantly, when it is bound to ATP, ADP or the non-hydrolysable AMP-PNP”.

B1: Ncs2* (Ncs2 H71L), S. cerevisiae (natural protein)
chain: MECQRCPASARNPATVESRKEKFCDECFIKFVSTKQRKQMMKDEYFRNLFKVIYPFEKEGSVSKILLPLSLSDSGSLVMLDIVHDLLLEQTKQHNNRTGFTVDVLTVFTEENVSVIKERMESLINEKMSQLNKISNIFNVHFIDVNEFFNNASEVSTFIIDNENFEIFSKSKSVDDSNILTLKEILGKYCLNNSSRSDLISIIKTQLIKHFAYENGYNAIMWGHSMTKLSEVIISLVVKGKGSQIATFLDSESFDTLNNKPCKYKNLYPMKDLLSVEIESFLQIRNLAQFLINVEETNVKPNCLIARKSLPSLGQQKLVKNMTINEITNKYFQDIQNDYSNIISTVLRTADKLTQPKSSMAKPSQCQICQSKIYTNPSNWLNRITVTSPYPVETTEEKYLFKQWQDSKLGQSHTHYVELLNEIKQGASNSLDVEDGDVKLCYGCLILLNTSIKDKNLVWPKVDTMDITANATNKNKELSQILDQFEINSDGEE
As to B1, in experiment [1], the “Miller units (beta-galactosidase, two-hybrid)” value (“Miller units” below) was determined as 252 MU.

B2: Ncs2^H71I, S. cerevisiae (natural protein)
chain: MECQRCPASARNPATVESRKEKFCDECFIKFVSTKQRKQMMKDEYFRNLFKVIYPFEKEGSVSKILLPLSISDSGSLVMLDIVHDLLLEQTKQHNNRTGFTVDVLTVFTEENVSVIKERMESLINEKMSQLNKISNIFNVHFIDVNEFFNNASEVSTFIIDNENFEIFSKSKSVDDSNILTLKEILGKYCLNNSSRSDLISIIKTQLIKHFAYENGYNAIMWGHSMTKLSEVIISLVVKGKGSQIATFLDSESFDTLNNKPCKYKNLYPMKDLLSVEIESFLQIRNLAQFLINVEETNVKPNCLIARKSLPSLGQQKLVKNMTINEITNKYFQDIQNDYSNIISTVLRTADKLTQPKSSMAKPSQCQICQSKIYTNPSNWLNRITVTSPYPVETTEEKYLFKQWQDSKLGQSHTHYVELLNEIKQGASNSLDVEDGDVKLCYGCLILLNTSIKDKNLVWPKVDTMDITANATNKNKELSQILDQFEINSDGEE
B2: in experiment [1], the “Miller units” value is 109 MU.

B3: Ncs2^H71A, S. cerevisiae (natural protein)
chain: MECQRCPASARNPATVESRKEKFCDECFIKFVSTKQRKQMMKDEYFRNLFKVIYPFEKEGSVSKILLPLSASDSGSLVMLDIVHDLLLEQTKQHNNRTGFTVDVLTVFTEENVSVIKERMESLINEKMSQLNKISNIFNVHFIDVNEFFNNASEVSTFIIDNENFEIFSKSKSVDDSNILTLKEILGKYCLNNSSRSDLISIIKTQLIKHFAYENGYNAIMWGHSMTKLSEVIISLVVKGKGSQIATFLDSESFDTLNNKPCKYKNLYPMKDLLSVEIESFLQIRNLAQFLINVEETNVKPNCLIARKSLPSLGQQKLVKNMTINEITNKYFQDIQNDYSNIISTVLRTADKLTQPKSSMAKPSQCQICQSKIYTNPSNWLNRITVTSPYPVETTEEKYLFKQWQDSKLGQSHTHYVELLNEIKQGASNSLDVEDGDVKLCYGCLILLNTSIKDKNLVWPKVDTMDITANATNKNKELSQILDQFEINSDGEE
As for B3, the “Miller units” value in experiment [1] amounted to 130 MU.
